Results: US20040067955A1, “Pyridazinone compound and pharmaceutical use thereof” (Fujisawa Pharmaceutical Co. Ltd., priority 2002, published 2004)

Legend:
human A1 receptor = target: T1, human A1 receptor (Homo sapiens, UniProt P30542); assay: Adenosine antagonistic activity: radioligand binding with [3H]DPCPX (4.5 nM)
T1 sequence (P30542 1-326): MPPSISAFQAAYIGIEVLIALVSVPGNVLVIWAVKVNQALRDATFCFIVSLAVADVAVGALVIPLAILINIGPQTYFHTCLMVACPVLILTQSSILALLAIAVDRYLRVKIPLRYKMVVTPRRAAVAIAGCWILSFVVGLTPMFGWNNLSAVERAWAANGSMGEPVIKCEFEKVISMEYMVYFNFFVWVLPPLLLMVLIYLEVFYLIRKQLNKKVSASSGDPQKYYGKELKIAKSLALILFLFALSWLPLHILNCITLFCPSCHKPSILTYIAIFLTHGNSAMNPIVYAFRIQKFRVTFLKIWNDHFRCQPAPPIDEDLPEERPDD
Description: (§1) The adenosine antagonistic activity [Ki(nM)] of the test compound was examined by radioligand binding techniques using 8-cyclopentyl-1,3-dipropylxanthine, [dipropyl-2,3-^3H (N)] ([^3H]DPCPX, 4.5 nM) for human A1 receptor and [^3H]CGS 21680 (20 nM) for human A2a receptor.

ddY mice = assay: Anticatalepsy activity in mouse (haloperidol-induced catalepsy, bar test); type: in vivo; settings: test compound 3.2 mg/kg orally, ddY mice (n=7); haloperidol 0.32 mg/kg i.p. 30 min later; measured 30 min after injection
Description: The test compound (3.2 mg/kg) was administered orally with ddY mice (n=7). Then, haloperidol (0.32 mg/kg) was injected intraperitoneally 30 min. after the administration of the compound. Thirty min. After the injection, the cataleptic responses of mice were measured. The forelimbs of each mouse were placed on a 3 cm high, 3 mm wide horizontal bar, and the duration of cataleptic posture was measured for up to 30 sec.

human A2a receptor = human A2a receptor (Homo sapiens, UniProt P29274); assay: Adenosine antagonistic activity: radioligand binding with [3H]CGS 21680 (20 nM)
Description: as §1

human A2a receptor, sequence (P29274 whole entry): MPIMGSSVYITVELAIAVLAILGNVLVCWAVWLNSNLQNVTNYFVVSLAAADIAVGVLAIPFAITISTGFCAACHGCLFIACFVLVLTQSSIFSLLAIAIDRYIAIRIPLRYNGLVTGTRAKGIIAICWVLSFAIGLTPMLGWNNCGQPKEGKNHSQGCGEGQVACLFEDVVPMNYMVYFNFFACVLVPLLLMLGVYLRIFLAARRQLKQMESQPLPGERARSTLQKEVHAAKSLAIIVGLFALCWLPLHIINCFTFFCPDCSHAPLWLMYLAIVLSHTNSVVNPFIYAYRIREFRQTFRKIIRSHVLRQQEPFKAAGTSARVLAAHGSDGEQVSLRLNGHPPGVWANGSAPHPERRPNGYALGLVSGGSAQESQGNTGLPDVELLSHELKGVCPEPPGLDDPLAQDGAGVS

Row | SMILES | melting point | Ki (human A1 receptor) | Manifestation rate of catalepsy (number of mouse) (ddY mice) | Ki (human A2a receptor)
1 | CC(C)n1nc(-c2cc(C#N)c(N)nc2-c2ccccc2)ccc1=O [Example 3, 2-Amino-5-(1-isopropyl-6-oxo-1,6-dihydro-3-pyridazinyl)-6-phenylnicotinonitrile] | 197 to 198 °C | 0.56 nM | 0/7 | 0.65 nM
2 | CC(C)n1nc(-c2cc(-c3ccn[nH]3)cnc2-c2ccccc2)ccc1=O [Example 24, 2-isopropyl-6-[2-phenyl-5-(pyrazol-5-yl)-3-pyridyl]-3(2H)-pyridazinone] | 212 to 213 °C | 0.46 nM | 0/7 | 2.7 nM
3 | CC(C)n1nc(-c2cc(NC(=O)c3ccccc3)cnc2-c2ccccc2)ccc1=O [Example 27, N-[5-(1-isopropyl-6-oxo-1,6-dihydro-3-pyridazinyl)-6-phenyl-3-pyridyl]benzamide] | 207 to 208 °C | 0.31 nM | 0/7 | 1.24 nM
4 | CC(C)n1nc(-c2cc(Cl)c(N)nc2-c2ccc(F)cc2)ccc1=O [Example 74, 6-[6-Amino-5-chloro-2-(4-fluorophenyl)-3-pyridyl]-2-isopropyl-3(2H)-pyridazinone] |  | 6.42 nM | 0/7 | 1.28 nM
